Measured values taken from patent EP3811945A1, “COMPOUNDS FOR TREATING AND PREVENTING GROWTH HORMONE RECEPTOR-DEPENDENT CONDITIONS” (UMC Utrecht Holding B.V., priority 2019, dated 2021).
pEC50: −log10 of the molar value.

How the values were obtained:
GM-CSF signaling = assay: GH/GM-CSF flow cytometric test in whole human blood with IM-9 lymphoblasts; conditions: selectivity versus another Jak2-dependent cytokine
Procedure: This allowed simultaneous testing of GH- and GM-CSF activity. The GH/GM-CSF cytometric test added two important criteria to GH signaling: The test prioritized compounds that target the GH-driven signaling at the expense of another Jak2-dependent cytokine signaling (GM-CSF); equally important: it selected compounds that exert a rapid effect on the GH/IGF-axis as the response time for STAT5 phosphorylation was limited to 20-30 min.
(§2) GH-induced GH-GHR-Jak2 signaling was probed by GHR pY staining in concentration series (0-20 µM, 1 h drug-treated, 10 min GH).

GH-GHR-Jak2 signaling = assay: GH-induced signaling in Hek293T cells expressing GHR (pY staining, concentration series)
Procedure: as §2

GHR = GHR protein levels and phosphorylation in GHR-expressing HEK293T cells transfected with Jak2 (blot, Figure 4A); format: cell-based, rabbit; conditions: overnight treatment, compounds 10 µM; 90 ng GH/ml 10 min before lysis
Description: • Figure 1. […] Unphosphorylated fos-GHRct is rapidly degraded.

[1] = system: triple negative human breast cancer cells (MDA-MB-231); assay: Proliferation test (DNA in vital cells, dose-response); format: cell-based; conditions: inhibition of proliferation of MDA-MB-231, tested after 24, 48, 72h in cell culture
Procedure: The EC50 refers to the inhibitory effect of the compounds on the proliferation of triple negative human breast cancer cells (MDA-MB-231), tested after 24, 48, 72h in cell culture.
We used the triple-negative human breast cancer line, MDA-MB-231 and quantified DNA in vital cells. Dose-response curves were made after 24, 48 & 72 h. […] The compound with the lowest EC50 (Compound #1) was tested in vivo.

[2] = system: dog breast cancer cells, grown as organoids; assay: Growth of canine mammary tumor organoids; format: cell-based; conditions: Canis lupus familiaris; organoids in Matrigel; read-out: EC50 growth inhibition of dog breast cancer organoids
Procedure: Next, we determined that also growth of dog breast cancer cells, grown as organoids, could be inhibited with the compounds according to the invention, in the best case (compound #1) with an EC50 of about 20 nM, see also figure 3.
Canine mammary organoids were derived from tumor cells and cultured in Matrigel in the presence of a variety of growth factors, Wnt activators and MPA (Timmermans-Sprang et al., 2017). Organoids were treated for 48 h with 100 nM of compound #1, followed by staining with DAPI (nuclei) or specific antibodies against GHR or cytokeratin 8 (CK8).

MDA-MB-231 cells = assay: In vivo test in mice xenografted with MDA-MB-231 cells; parameters: species or system Athymic nude BALB/c mice
Description: • Figure 1. Diagram of the primary screening method for candidate compounds. Depicted are GHR fos-zipped cytosolic tails, amino acid 288-638 with fos zippers (fos), box-1 sequence (B1), and Jak2 (FERM, SH2, pseudokinase and kinase domains), as described in Nespital et al., 2016; Sedek et al, 2014). If the dimerized tails and Jak2 bind via FERM and Box-1, Jak2 gets activated and phosphorylates itself, the dimerized tails and STAT5b. After phosphorylation of specific tyrosine residues on GHR, Jak2 and STAT5, the complex dissociates; as fos-pGHRct is protease-resistant it accumulates in the cells. Unphosphorylated fos-GHRct is rapidly degraded. Steady state levels of Fos-pGHRct are lower if its synthesis, degradation or Jak2-interaction is changed by a candidate compound. The cell-based assay was performed in y2A cells carrying inducible Jak2 (iJak2) or binding-deficient iJak2 Y119E (as control). • Figure 2. Effect of test compounds on mice, xenografted with MDA-MB-231 cells. Athymic nude BALB/c mice were transplanted with luciferase-expressing MDA-MB-231 cells at week -5. Starting at week 0, compound #1 was injected 3 times a week for 3 weeks; group size: 9, intraperitoneally (IP) at 1 or 5 mg/kg as indicated. Anesthetized mice were IP-injected with luciferin and the bioluminescence was imaged. The animals received the last drug injections 2 hours before they were euthanized, then blood was collected and livers were weighed. […] Organoids were cultured in Matrigel in the presence of a variety of growth factors, Wnt activators and MPA. Organoids were treated for 48 h with 100 nM of compound #1 followed by staining with DAPI (nuclei) or specific antibodies against GHR or cytokeratin 8. • Figure 4A: Effect of compounds on GHR levels in Hek293T cells. […] The amounts of GHR both at the plasma membrane (PM) and in the endoplasmic reticulum (ER) were decreased in the cells treated with the compounds. […] Decrease of the pY signal in lanes 3 and 4 in the middle panel reflects the decrease of GHR protein levels (in the upper panel). […] Translation of other proteins was not affected by the drugs (not shown). We used a cell-free translation system based on HeLa cell extract (Promega) Empty vector (pcDNA) was used as control. The blots were detected with an anti-GHR antibody raised in rabbits against the cytosolic tails. • Figure 5: Schematic view of GHR signaling. Top panel, downstream signaling pathways with their main expressed genes and enzymatic activities; middle panel, resulting effect; lower panel, major diseased states if unbalanced.
Mice were xenografted with MDA-MB-231 cells as described. This cell line was chosen as it is GH-responsive, […] can block doxorubicin-induced apoptosis, it lacks E-cadherin due to hypermethylation, proliferates fast, has a basal-like expression profile and originates from infiltrating ductal breast cancer (Christgen and Derksen, 2015; Hollestelle et al., 2013; Minoia et al., 2012).
We used a protocol of 3 injections per week (1 and 5 mg/kg) during 3 weeks (9 mice/group). The treatment started after 5 weeks at a tumor volume of about 60 mm^3, and the animals were killed after 3 weeks at a tumor volume of 130 mm^3 in the control group.

[3] = system: fos-zippered GHR cytosolic tails; assay: In vitro translation in HeLa cell-free system (Figure 4B); format: biochemical; conditions: HeLa cell extract, increasing concentrations
Description: • Figure 1. Diagram of the primary screening method for candidate compounds. Depicted are GHR fos-zipped cytosolic tails, amino acid 288-638 with fos zippers (fos), box-1 sequence (B1), and Jak2 (FERM, SH2, pseudokinase and kinase domains), as described in Nespital et al., 2016; Sedek et al, 2014). If the dimerized tails and Jak2 bind via FERM and Box-1, Jak2 gets activated and phosphorylates itself, the dimerized tails and STAT5b. After phosphorylation of specific tyrosine residues on GHR, Jak2 and STAT5, the complex dissociates; as fos-pGHRct is protease-resistant it accumulates in the cells. Unphosphorylated fos-GHRct is rapidly degraded. Steady state levels of Fos-pGHRct are lower if its synthesis, degradation or Jak2-interaction is changed by a candidate compound. The cell-based assay was performed in y2A cells carrying inducible Jak2 (iJak2) or binding-deficient iJak2 Y119E (as control). • Figure 2. Effect of test compounds on mice, xenografted with MDA-MB-231 cells. Athymic nude BALB/c mice were transplanted with luciferase-expressing MDA-MB-231 cells at week -5. Starting at week 0, compound #1 was injected 3 times a week for 3 weeks; group size: 9, intraperitoneally (IP) at 1 or 5 mg/kg as indicated. […] The blots were detected with an anti-GHR antibody raised in rabbits against the cytosolic tails. • Figure 5: Schematic view of GHR signaling. […]

MDA-MB-231 = assay: Luminescent cell viability assay (ATP); format: cell-based; conditions: Homo sapiens, 46 hours, luciferase signal normalized to untreated cells = 1, read-out: Relative viability MDA-MB-231
Procedure: (§1) Compounds were assessed for effects on viability of the breast cancer cell lines MDA-MB-231 and MDA-MB-453. The cells were incubated with the compounds for 46 hours at a concentration of 5 uM. DMSO was used as vehicle control. Cell viability was assessed after approximately 46 hours by using a luminescent cell viability assay. This assay generates a luminescent signal, proportional to the amount of ATP that is present as a readout of metabolically active cells. Relative viability was calculated by expressing the luciferase signal as a value normalized to untreated cells, meaning that the measured luciferase signal in untreated cells equals 1.

MDA-MB-453 = assay: Luminescent cell viability assay (ATP); format: cell-based; conditions: Homo sapiens, 46 hours, luciferase signal normalized to untreated cells = 1, read-out: relative viability MDA-MB-453
Procedure: as §1

[4] = IP 1 or 5 mg/kg, 3 times a week for 3 weeks

Row | pEC50 ([1]; Homo sapiens) | Compound | viability at 5 µM (MDA-MB-231) | viability at 5 µM (MDA-MB-453) | further results
1 | – | 5-{[1-(4-chlorophenyl)cyclopropyl]ethynyl}-6-methylpyrimidine-2,4-diamine [Compound #2] | – | – | activity towards GM-CSF signaling (GM-CSF signaling): inactive; phosphorylation of fos-GHRct (fos-pGHRct), of the active site of Jak2 (p1007/1008) and of STAT5 (pSTAT5) (GH-GHR-Jak2 signaling): inhibited; amounts of GHR at the plasma membrane (PM) and in the endoplasmic reticulum (ER) / GHR protein levels (GHR): decreased; pEC50 [1]: 7.10
2 | 7.52 | Cc1nc(N)nc(N)c1C=CC1(c2ccc(C(F)(F)F)cc2)CC1 [Compound #1, 6-methyl-5-[2-{1-[4-(trifluoromethyl)phenyl]cyclopropyl}ethenyl]pyrimidine-2,4-diamine] | – | – | pEC50 [2]: ~7.70; activity towards GM-CSF signaling (GM-CSF signaling): inactive; significantly lowered liver weight (MDA-MB-231 cells; [4]): 85%; total body weights (MDA-MB-231 cells; [4]): remained the same; significantly lowered serum IGF-1 (MDA-MB-231 cells; IP 1 or 5 mg/kg, 3 times a week for 3 weeks, blood 2 hours after last injection): 27%; level of plasma IGF-1 (figure 2C) (MDA-MB-231 cells; treated vs control mice): decreased; liver weight (figure 2D) (MDA-MB-231 cells; treated vs control mice): reduced; phosphorylation of fos-GHRct (fos-pGHRct), of the active site of Jak2 (p1007/1008) and of STAT5 (pSTAT5) (GH-GHR-Jak2 signaling): inhibited; pEC50 (GH-GHR-Jak2 signaling; Oryctolagus cuniculus, HEK-293T): ~6.52; amounts of GHR at the plasma membrane (PM) and in the endoplasmic reticulum (ER) / GHR protein levels (GHR): decreased; effective concentrations on in vitro translation of fos-zippered GHR cytosolic tails [3]: > 0.1 µM
3 | 6.70 | Cc1nc(N)nc(N)c1CCC(C)c1ccc(F)cc1 (stereo not shown) [compound 3, 5-[3-(4-fluorophenyl)butyl]-6-methylpyrimidine-2,4-diamine] | 87.7% | 82.7% | –
4 | 6.40 | CC(C)(C=Cc1c(N)nc(N)nc1CCC(F)(F)F)c1ccc(C(F)(F)F)cc1 [compound 4, 5-{3-methyl-3-[4-(trifluoromethyl)phenyl]but-1-en-1-yl}-6-(3,3,3-trifluoropropyl)pyrimidine-2,4-diamine] | 115% | 78.9% | –
5 | 6.10 | Cc1nc(N)nc(NCc2ccccn2)c1C=CC(C)(C)c1ccc(C(F)(F)F)cc1 [compound 5, 6-methyl-5-[3-methyl-3-[4-(trifluoromethyl)phenyl]but-1-en-1-yl]-N^4-[(pyridin-2-yl)methyl]pyrimidine-2,4-diamine] | 74.1% | 20.7% | –
6 | 5.70 | Cc1nc(NCc2ccccn2)nc(N)c1C=CC(C)(C)c1ccc(C(F)(F)F)cc1 [compound 6, 6-methyl-5-{3-methyl-3-[4-(trifluoromethyl)phenyl]but-1-en-1-yl}-N^2-[(pyridin-2-yl)methyl]pyrimidine-2,4-diamine] | – | – | –
7 | – | Cc1nc(N)nc(N)c1C#CC1(c2ccc(C(F)(F)F)cc2)CC1 [compound 23, 6-methyl-5-[2-[1-[4-(trifluoromethyl)phenyl]cyclopropyl]ethynyl]pyrimidine-2,4-diamine] | 107% | 71.7% | –
8 | – | Cc1nc(N)nc(N)c1C=CC1(c2ccc(OC(F)(F)F)cc2)CC1 [compound 24, 6-methyl-5-[2-[1-[4-(trifluoromethoxy)phenyl]cyclopropyl]vinyl]pyrimidine-2,4-diamine] | 87.8% | 39.2% | –
9 | – | Cc1nc(N)nc(N)c1C=CC1(c2ccc(N3CCOCC3)cc2)CC1 [compound 25, 6-methyl-5-[2-[1-(4-morpholinophenyl)cyclopropyl]vinyl]pyrimidine-2,4-diamine] | 91.6% | 40.5% | –
10 | – | Cc1nc(N)nc(N)c1C=CC1(c2cccc(C(F)(F)F)c2)CC1 [compound 26, 6-methyl-5-[2-[1-[3-(trifluoromethyl)phenyl]cyclopropyl]vinyl]pyrimidine-2,4-diamine] | 103% | 63.2% | –
11 | – | Cc1nc(N)nc(N)c1C#CC1(c2cccc(C(F)(F)F)c2)CC1 [compound 27, 6-methyl-5-[2-[1-[3-(trifluoromethyl)phenyl]cyclopropyl]ethynyl]pyrimidine-2,4-diamine] | 105% | 73% | –
12 | – | Cc1nc(N)nc(N)c1C#CC1(c2ccc(N3CCOCC3)cc2)CC1 [compound 28, 6-methyl-5-[2-[1-(4-morpholinophenyl)cyclopropyl]ethynyl]pyrimidine-2,4-diamine] | 107% | 70.1% | –
13 | – | Cc1nc(N)nc(N)c1C#CC1(c2ccc(OC(F)(F)F)cc2)CC1 [compound 29, 6-methyl-5-[2-[1-[4-(trifluoromethoxy)phenyl]cyclopropyl]ethynyl]pyrimidine-2,4-diamine] | 95.5% | 62.6% | –
